The values below come from patent US4948791A, “Novel Cytotoxic cyclic depsipeptides from the tunicate trididemnum solidum” (priority 1989, dated 1990).

Converted amounts (≈) assume the structure as drawn. Numbered stars: 1 amine (or outer) side, 2 acyl side, 3 side chain; on linkers, the order of the positions; unused ones are H or OH. Bridge positions count the residues as written; N and C are the ends. Square brackets hold non-standard residues; d marks the D form. Peptide text beside a SMILES is read from it. X1 = CC[C@H](C)[C@@H](N[*:1])[C@@H](O)CC(=O)O[C@H](C(=O)[C@H](C)C(=O)[*:2])C(C)C; NMeY = CN[C@@H](Cc1ccc(O)cc1)C(=O)O; dNMeL = CN[C@H](CC(C)C)C(=O)O

The experiment has as its system L1210 mouse leukemia cells. In words: Three-day L1210 cell growth inhibition assay (at 37° C.). Type of experiment: cell-based. Particulars: for growth of L1210 mouse leukemia cells in vitro: statement in words. The method, then:
Three-day L1210 cell growth inhibition assay (at 37° C.)

Setting [1] is: three-day L1210 cell growth inhibition assay.
Where [2] appears, read: three-day L1210 cell growth inhibition, 37° C., first ID50/ID90 column pair of Table 1.
The mark [3] stands for this setting: three-day L1210 cell growth inhibition, 37° C., second ID50/ID90 column pair of Table 1.

Turning to “3-hydroxydecanoyl-L-Gln-L-Gln-L-Gln-L-Gln-didemnin B [Didemnin Y]”, the “growth of L1210 mouse leukemia cells in vitro” value was “inhibit the growth”. Besides, the ID50 under setting [1] was 6.4 ng/mL. Moreover, under setting [2], the ID50 stood at 6.4 ng/mL and the ID90 is 21 ng/mL. Under setting [3], this compound yielded an ID50 of 4.8 ng/mL and an ID90 of 20 ng/mL.

Under setting [2], `CC[C@H](C)[C@H]1NC(=O)[C@@H](NC(=O)[C@@H](CC(C)C)NC)[C@@H](C)OC(=O)[C@H](Cc2ccc(OC)cc2)N(C)C(=O)[C@@H]2CCCN2C(=O)[C@H](CC(C)C)NC(=O)[C@@H](C)C(=O)[C@H](C(C)C)OC(=O)C[C@@H]1O` [Didemnin A, didemnin A] (H-[dNMeL]T[X1]LP[NMeY](Me); ester 2-C) yielded an ID50 of 7.8 ng/mL (≈ 0.00827 µM) and an ID90 of 58 ng/mL (≈ 0.0615 µM).

Under setting [3], `CC[C@H](C)[C@H]1NC(=O)[C@@H](NC(=O)[C@@H](CC(C)C)N(C)C(=O)[C@@H]2CCCN2C(=O)C(C)O)[C@@H](C)OC(=O)[C@H](Cc2ccc(OC)cc2)N(C)C(=O)[C@@H]2CCCN2C(=O)[C@H](CC(C)C)NC(=O)[C@@H](C)C(=O)[C@H](C(C)C)OC(=O)C[C@@H]1O` (stereo partly drawn) [Didemnin B, didemnin B] had an ID50 of 3.8 ng/mL (≈ 0.00342 µM) and an ID90 of 15 ng/mL (≈ 0.0135 µM).

With “(R)-3-hydroxydecanoyl-L-Gln-L-Gln-L-Gln-didemnin B [Didemnin X]”, the “growth of L1210 mouse leukemia cells in vitro” value is reported as “inhibit the growth”. The compound further came in with an ID50 under setting [1] of 4 ng/mL. Under setting [2], this compound came in with an ID50 of 4 ng/mL and an ID90 of 17 ng/mL. Under setting [3], this compound had an ID50 of 4.8 ng/mL and an ID90 of 17 ng/mL.

Under setting [2], didemnin D gave an ID50 of 3.4 ng/mL and an ID90 of 15 ng/mL. Besides, under setting [3], the ID50 is 4.2 ng/mL and the ID90 is 16 ng/mL.

Under setting [2], didemnin E yielded an ID50 of 1.1 ng/mL and an ID90 of 7.6 ng/mL. Under setting [3], the ID50 was 0.8 ng/mL and the ID90 worked out at 5.6 ng/mL.
